From PMC12656565, “In Vitro and Ultrastructural Evaluation of the Cytotoxic and Antileishmanial Activities of Thiosemicarbazone Compounds Against Promastigotes and Axenic Amastigotes of Leishmania infantum” (Tropical Medicine and Infectious Disease, 2025)
“Also recorded” adds a separate entry of the source.

Tests used:
[1] = tested on: Leishmania infantum promastigote forms (MHOM/BR/BH46); assay: In vitro leishmanicidal activity against promastigotes (Neubauer chamber counting); format: cell-based; details: for SI (CC50/IC50): CC50 J774 macrophages / IC50 promastigotes; for IC50 / inhibition at 20 µM: Leishmania infantum; for IC50: 72 h, L. infantum promastigotes, linear regression; for inhibition at 20 µM: lowest concentration tested in the promastigote series (20–400 µM)
Protocol: For this study, the Leishmania infantum strain MHOM/BR/BH46 was used. It was maintained by cryopreservation in liquid nitrogen, using a preservation solution containing 10% dimethyl sulfoxide (DMSO) and 90% fetal bovine serum (FBS). For the experiments, the strain was reactivated and maintained in continuous culture in modified Schneider’s Drosophila medium, supplemented with 10% heat-inactivated fetal bovine serum (FBS), at a temperature of 26 °C, with subcultures performed every 72 h. The promastigote form was used for the in vitro assays, with growth observed and monitored through parasite counting using a Neubauer chamber (iNCYTO CChip DHC-N01, Cheonan-Si, Republic of Korea).
The in vitro leishmanicidal activity of compounds LT-70, LT-73, LT-75, LT-89, and amphotericin B was determined as described by Aliança et al., with adaptations. Promastigote forms of L. infantum (MHOM/BR/BH46) were maintained in Schneider’s medium supplemented with 10% fetal bovine serum (FBS), incubated at 26 °C. For experiments, parasites were subcultured and grown for 72 h until reaching stationary phase. Subsequently, they were adjusted to a concentration of 1 × 10^6 parasites/mL. Cultures were then incubated in the presence of the tested compounds (20–400 µM) and Amphotericin B was tested from 0.01 to 1.0 µM in preliminary range-finding assays, confirming an IC50 of 0.04 µM, both prepared in DMSO (final DMSO concentration < 1%), as well as a control containing only the diluent. Analyses were performed in technical triplicate and biological duplicate. Cultures were maintained at 26 °C for 72 h, with daily parasite counts performed using a Neubauer chamber. The median inhibitory concentration (IC50) was determined after 72 h by linear regression using SPSS 25.0 software for Mac. All assays were performed in 24-well flat-bottom plates (2 mL final volume per well), with parasite inoculum verified by Neubauer counting chamber. The compounds LT-73 and LT-75 were selected based on their best leishmanicidal performance and respective selectivity index (SI), calculated as the ratio between the cytotoxic concentration for 50% of host cells (CC50) and the IC50 obtained for parasites. […] IC50 and CC50 values were obtained by linear regression using […]. This method has been validated in our previous thiosemicarbazone publications. Each assay was conducted in triplicate across two independent biological experiments performed on separate days to ensure reproducibility and minimize batch effects. MTT was selected for consistency with the validated thiosemicarbazone protocol by Jacob et al., ensuring methodological coherence with prior data.

[2] = tested on: L. infantum promastigote cells; assay: Mitochondrial membrane potential (Rhodamine 123, flow cytometry); format: cell-based, Leishmania infantum; details: for Variability Index (VI), range: range over the tested concentrations (1× and 2× IC50; H2O2 control)
Protocol: To evaluate the effects of compounds on the mitochondrial membrane potential (ΔΨm) of Leishmania infantum, the cationic probe Rhodamine 123 (Rod 123) was used through quantitative flow cytometry analysis. […] After incubation, cells were centrifuged at 3000× g for 5 min, and supernatants discarded. […] Hydrogen peroxide (H2O2) at 1 μM was used as positive control, previously described in the literature as an inducer of mitochondrial potential loss. Cells were analyzed by flow cytometry on the FACSCalibur equipment (Becton & Dickinson, San José, CA, USA), with excitation at 488 nm and detection at 505/534 nm. Fifty thousand events per sample were acquired. Data were expressed as percentage of cells stained with Rhodamine 123 for each tested condition. Fluorescence variation was quantified by Variation Index (VI), calculated by the equation: VI = (MT − MC)/MC, where MT corresponds to the median fluorescence of treated cells and MC to the median of control cells (untreated).

[3] = tested on: L. infantum promastigotes; assay: Apoptosis/necrosis by annexin V-FITC and propidium iodide flow cytometry; format: cell-based, Leishmania infantum; details: 1× and 2× IC50, 72 h
Protocol: To evaluate cell death types induced by the compounds, promastigote forms of Leishmania infantum (2 × 10^6 cells/mL) were treated with concentrations corresponding to 1× and 2× IC50 of compounds LT-73 and LT-75 for 72 h. After incubation, cells were centrifuged at 3000× g for 5 min, washed with PBS, and subsequently with 1× Buffer Solution provided by the Annexin V-FITC apoptosis detection kit (BD Biosciences, San Jose, CA, USA). Cells were then resuspended in 100 µL Buffer Solution and stained with 5 µL Annexin V conjugated to FITC, incubated for 15 min at room temperature protected from light. After incubation, cells were washed again with 1× Buffer Solution and resuspended in 200 µL of the same buffer. Subsequently, 5 µL propidium iodide (PI) were added to each sample for identification of cells with compromised membrane integrity. Samples were transferred to flow cytometry tubes and analyzed on the FACSCalibur flow cytometer (Becton Dickinson, San José, CA, USA) equipped with CellQuest PRO Software (BD Biosciences; version 5.1), within 4 h after staining. Annexin V-FITC was excited at 488 nm, with fluorescence detected at 530/30 nm; propidium iodide (PI) was excited at 488 nm and detected at 585/42 nm. Single-stained controls for Annexin V-FITC and PI were included in order to apply spillover correction (compensation) between channels.

J774.A1 macrophages = tested on: J774.A1 macrophages; parameters: method as in PMID 33590474; details: highest concentration tested 75 µM, previously determined in collaboration with Jacob et al., ref [20]; cited from earlier work

With `C[C@@H]1[C@H](O)[C@@H](C)/C=C/C=C/C=C/C=C/C=C/C=C/C=C/[C@H](O[C@@H]2O[C@H](C)[C@@H](O)[C@H](N)[C@@H]2O)C[C@@H]2O[C@](O)(C[C@@H](O)C[C@@H](O)[C@H](O)CC[C@@H](O)C[C@@H](O)CC(=O)O[C@H]1C)C[C@H](O)[C@H]2C(=O)O` [Amphotericin B, reference compound] the “SI (CC50/IC50)” value [1] was 350, the IC50 [1] was 0.04 µM and the inhibition at 20 µM [1] was 100%. For the same compound, the “Mean (Rho 123 fluorescence)” value ([2]; 1× IC50, 72 h) was 213 ± 1, the “Variation (Variation Index, VI = (MT − MC)/MC)” value ([2]; 1× IC50, 72 h) was −0.70 ± 0.01 and the “Mean (Rho 123 fluorescence)” value ([2]; 2× IC50, 72 h) was 193 ± 3. For the same compound, the “Variation (Variation Index, VI = (MT − MC)/MC)” value ([2]; 2× IC50, 72 h) was −0.73 ± 0.02, the “Variability Index (VI), range” value [2] was −0.018 to −0.73 and the “Cell death profile by annexin V/PI staining (in words)” value (shortened to “Cell death profile”) [3] was “induced apoptosis as the main form of cell death”. The CC50 (J774.A1 macrophages) was 14 ± 0.3 µM.

With `S=C(N/N=C/c1c[nH]c2ncccc12)Nc1ccccc1` [LT-73] the “SI (CC50/IC50)” value [1] was >5.8, the IC50 [1] was 10 to 14 µM and the inhibition at 20 µM [1] was 100%. The “Mean (Rho 123 fluorescence)” value ([2]; 1× IC50, 72 h) was 658 ± 9, the “Variation (Variation Index, VI = (MT − MC)/MC)” value ([2]; 1× IC50, 72 h) was −0.07 ± 0.05 and the “Mitochondrial membrane depolarization (in words)” value ([2]; 1× and 2× IC50, 72 h) was “depolarization of the mitochondrial membrane; also recorded: induced a alteration in Δψm”. For the same compound, the “Mean (Rho 123 fluorescence)” value ([2]; 2× IC50, 72 h) was 697 ± 7, the “Variation (Variation Index, VI = (MT − MC)/MC)” value ([2]; 2× IC50, 72 h) was −0.02 ± 0.03 and the “Variability Index (VI), range” value [2] was −0.02 to −0.07. The “Cell death profile” value [3] was “predominantly induced AV+/PI− staining; also recorded: predominantly induced apoptosis; also recorded: able to induce phosphatidylserine externalization” and the CC50 (J774.A1 macrophages) was > 75 µM.

With `N#Cc1ccc2[nH]cc(/C=N/NC(=S)Nc3ccc(Cl)cc3)c2c1` [LT-75] the “SI (CC50/IC50)” value [1] was >7.1, the IC50 [1] was 10 to 14 µM and the inhibition at 20 µM [1] was 100%. The “Mean (Rho 123 fluorescence)” value ([2]; 1× IC50, 72 h) was 1425 ± 106, the “Variation (Variation Index, VI = (MT − MC)/MC)” value ([2]; 1× IC50, 72 h) was 1 ± 0.23 and the “Mean (Rho 123 fluorescence)” value ([2]; 2× IC50, 72 h) was 1000 ± 21. The “Variation (Variation Index, VI = (MT − MC)/MC)” value ([2]; 2× IC50, 72 h) was 0.41 ± 0.05, the “Cell death profile” value [3] was “predominance of AV+/PI− staining; also recorded: predominantly induced apoptosis; also recorded: able to induce phosphatidylserine externalization” and the CC50 (J774.A1 macrophages) was > 75 µM.
